Reference: US7273717B2 (priority 2003, dated 2007)
Read-outs that look alike come from different tables or passages of the source. Peptide text beside a SMILES is read from it. * marks the point of attachment. Cbz = O=C(OCc1ccccc1)*

Columns and labels:
GS-9005 hydrolase B = assay type: biochemical, human
GS-9005 hydrolase A = assay type: biochemical, human; settings: pH 6.5; read-out: Inhibition profile IC50, 9005 Hydrolase A
[1] = pH 6.5, read-out: Inhibition profile IC50, 9005 Hydrolase B
[2] = read-out: concentration at which GS-9005 hydrolase B is inhibited by 50%

SMILES	inhibition of GS-9005 hydrolase B (in words) (GS-9005 hydrolase B)	IC50 (GS-9005 hydrolase B; [1]) [µM]	IC50 (GS-9005 hydrolase B; [2]) [µM]	IC50 (GS-9005 hydrolase A) [µM]
O=c1oc(Cl)c(Cl)c2ccccc12 [3,4 DCI, 3,4 dichloroisocoumarin]	inhibited	4	~4	> 150
O=C[C@@H]1CCCN1C(=O)[C@@H]1CCCN1C(=O)OCc1ccccc1 [Cbz-pro-pro-COH, Carboxybenzoyl-Pro-Pro-COH] (Cbz-Pro-Pro-aldehyde)		> 100	> 100	
CCOP(=O)(OCC)Oc1ccc([N+](=O)[O-])cc1 [paraoxon]		0.02	~0.02	0.03
